Where two headings read alike, the source gives them in different places.
Legend:
[1] = target: H5N1 virus neuraminidase (Influenza A virus, UniProt Q9Q0U7); assay: biochemical; details: for inhibition at 6.25 µM / inhibition at 12.5 µM / inhibition at 25 µM / inhibition at 50 µM / inhibition at 100 µM / inhibition at 200 µM / inhibition at 400 µM: read-out: The neuraminidase inhibitory rate (%)
[2] = test system: MDCK cells; details: dog
[3] = test system: A/Duck/Guangdong/212/2004 (H5N1) virus; assay: microbe, parasite or virus in culture; assay type: cell-based, H5N1 avian influenza virus
[4] = test system: VSVG pseudovirus; assay: microbe, parasite or virus in culture; assay type: cell-based, vesicular stomatitis virus (VSVG); details: for inhibition at 1.56 µM / inhibition at 3.13 µM / inhibition at 6.25 µM / inhibition at 12.5 µM / inhibition at 25 µM / inhibition at 50 µM / inhibition at 100 µM / inhibition at 200 µM: Pseudovirus, MDCK, 48 h, read-out: inhibitory rates, VSVG pseudovirus group
[5] = test system: H5N1 virus; assay: microbe, parasite or virus in culture; assay type: cell-based, H5N1 avian influenza virus; details: Influenza A virus
[6] = test system: wild-type A/Thailand/kan353/2004 (H5N1) pseudo-typed virus; assay: microbe, parasite or virus in culture; assay type: cell-based, H5N1 pseudovirus; details: Influenza A virus, H5N1, MDCK; for inhibition at 1.56 µM / inhibition at 3.13 µM / inhibition at 6.25 µM / inhibition at 12.5 µM / inhibition at 25 µM / inhibition at 50 µM / inhibition at 100 µM / inhibition at 200 µM: 48 h, read-out: inhibitory rates against pseudotyped virus, Wildtype Strain; for IC50: read-out: IC50 against H5N1 pseudovirus
[7] = target: HA protein (Influenza A virus, UniProt Q9Q0U6); assay: biochemical; assay type: binding, H5N1 virus
Sequence of HA protein (Q9Q0U6 17-568 limits assumed): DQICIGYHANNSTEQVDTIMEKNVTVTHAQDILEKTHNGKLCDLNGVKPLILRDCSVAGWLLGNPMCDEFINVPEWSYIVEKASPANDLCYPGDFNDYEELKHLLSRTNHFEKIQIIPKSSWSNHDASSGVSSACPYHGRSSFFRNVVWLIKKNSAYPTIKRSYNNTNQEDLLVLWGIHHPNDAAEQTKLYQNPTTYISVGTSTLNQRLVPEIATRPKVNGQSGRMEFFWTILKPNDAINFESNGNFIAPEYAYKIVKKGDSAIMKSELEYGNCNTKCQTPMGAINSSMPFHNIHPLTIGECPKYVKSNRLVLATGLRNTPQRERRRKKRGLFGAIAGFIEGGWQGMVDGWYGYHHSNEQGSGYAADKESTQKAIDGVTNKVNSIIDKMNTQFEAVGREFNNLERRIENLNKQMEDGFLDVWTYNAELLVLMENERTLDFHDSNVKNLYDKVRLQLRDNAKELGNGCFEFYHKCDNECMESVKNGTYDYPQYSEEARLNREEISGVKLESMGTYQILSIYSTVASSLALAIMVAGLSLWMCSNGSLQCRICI

[8] = test system: H5N1 virus HA1 (hemagglutination of chicken erythrocytes)
[9] = in vitro; details: dog
[10] = test system: A/Vietnam/1203/2004(H5N1) and A/Goose/Qinghai/59/05(H5N1) pseudotyped viral entry; details: read-out: IC50 against pseudotyped viral entry; cited from earlier work
[11] = Influenza A virus, H5N1, MDCK, read-out: Inhibition rates to H5N1 virus (%)
[12] = H5N1, read-out: inhibition rate of viral plaques forming

Sequence of H5N1 virus neuraminidase (Q9Q0U7 whole entry, looked up): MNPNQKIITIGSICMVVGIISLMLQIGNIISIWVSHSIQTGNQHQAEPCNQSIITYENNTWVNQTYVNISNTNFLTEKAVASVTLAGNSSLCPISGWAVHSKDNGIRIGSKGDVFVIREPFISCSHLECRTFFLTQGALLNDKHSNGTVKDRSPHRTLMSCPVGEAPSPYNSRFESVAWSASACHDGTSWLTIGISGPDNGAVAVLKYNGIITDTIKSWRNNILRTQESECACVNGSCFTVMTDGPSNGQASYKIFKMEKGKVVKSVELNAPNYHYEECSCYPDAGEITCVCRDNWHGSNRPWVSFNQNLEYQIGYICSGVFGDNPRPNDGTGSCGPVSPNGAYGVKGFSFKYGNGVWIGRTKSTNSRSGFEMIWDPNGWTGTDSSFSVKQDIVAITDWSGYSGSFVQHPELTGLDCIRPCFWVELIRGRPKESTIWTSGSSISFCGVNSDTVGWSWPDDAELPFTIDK

`CCOC(=O)C1=C[C@@H](OC(CC)CC)[C@H](NC(C)=O)[C@@H](N)C1` [Osetamivir, reference compound] gave an IC50 [1] of 0.00887 µM.

In the case of `CC1CCC2(OC1)OC1CC3C4CC(=O)C5CC(OC6OC(CO)C(OC7OC(C)C(O)C(O)C7O)C(O)C6OC6OC(C)C(O)C(O)C6O)CCC5(C)C4CCC3(C)C1C2C` (stereo not drawn) [UA-Nu-ph-5], the CC50 [2] is reported as 127 ± 1.7 µM, the “Inhibition rates to H5N1 virus (%)” value ([3]; 0.39 µM) is reported as 0% and the “Inhibition rates to H5N1 virus (%)” value ([3]; 0.78 µM) is reported as 10.75±2.01%. For the same compound, the “Inhibition rates to H5N1 virus (%)” value ([3]; 1.56 µM) was 10.78±3.11%, the “Inhibition rates to H5N1 virus (%)” value ([3]; 3.13 µM) was 16.51±6.34% and the “Inhibition rates to H5N1 virus (%)” value ([3]; 50 µM) was 65.30±4.73%. It also gave an IC50 ([3]; Influenza A virus, H5N1, MDCK) of 15.6 ± 2.4 µM, an inhibition at 6.25 µM [3, 11] of 35 ± 10.8% and an inhibition at 12.5 µM [3, 11] of 47.1 ± 1.63%. The inhibition at 25 µM [3, 11] was 61.7 ± 5.4% and the inhibition at 100 µM [3, 11] was 79.1 ± 3.27%.

For `CC1CCC2(OC1)OC1CC3C4CC(=O)C5CC(OC6OC(CO)C(OC7OC(C)C(O)C(O)C7O)C(O)C6OC6OC(C)C(O)C(O)C6O)CCC5(C)C4CCC3(C)C1C2C` (stereo not drawn) [XC-27-1], the “inhibitory effects on the VSVG pseudovirus” value [4] was “no inhibitory effects”, the inhibition at 1.56 µM [4] was -0.74 ± 6.43% and the inhibition at 3.13 µM [4] was -1.52 ± 4.89%. For the same compound, the inhibition at 6.25 µM [4] was -4.3 ± 3.47%, the inhibition at 12.5 µM [4] was 3.54 ± 4.16% and the inhibition at 25 µM [4] was 0.83 ± 6.72%. For the same compound, the inhibition at 50 µM [4] was 3.97 ± 5.2%, the inhibition at 100 µM [4] was 4.8 ± 4.97% and the inhibition at 200 µM [4] was 4.75 ± 3.18%. For the same compound, the inhibition at 40 µM [5, 12] was 95%, the CC50 [2] was 1247 ± 1.16 µM and the “in vitro cytotoxicity decreased (fold) than that of XC-27-2” value [2] was 16 fold. For the same compound, the IC50 [3] was 16.8 ± 1.45 µM, the “Inhibition rates to H5N1 virus (%)” value ([3]; 0.39 µM) was 27.54±1.11% and the “Inhibition rates to H5N1 virus (%)” value ([3]; 0.78 µM) was 31.73±6.04%. The “Inhibition rates to H5N1 virus (%)” value ([3]; 1.56 µM) was 37.01±4.82%, the “Inhibition rates to H5N1 virus (%)” value ([3]; 3.13 µM) was 40.85±8.91% and the “Inhibition rates to H5N1 virus (%)” value ([3]; 6.25 µM) was 46.13±10.59%. For the same compound, the “Inhibition rates to H5N1 virus (%)” value ([3]; 12.5 µM) was 55.30±3.74%, the “Inhibition rates to H5N1 virus (%)” value ([3]; 25 µM) was 75.06±10.43% and the “Inhibition rates to H5N1 virus (%)” value ([3]; 50 µM) was 85.71±5.06%. For the same compound, the “inhibition activity on NA (in words)” value [1] was “very low inhibition activity”, the inhibition at 6.25 µM [1] was 6.57 ± 6.89% and the inhibition at 12.5 µM [1] was 0.18 ± 8.13%. It also gave an inhibition at 25 µM [1] of -6.95 ± 12.7%, an inhibition at 50 µM [1] of 5.37 ± 14.4% and an inhibition at 100 µM [1] of 6.45 ± 14.9%. It also gave an inhibition at 200 µM [1] of 7.07 ± 9.83%, an inhibition at 400 µM [1] of 24.5 ± 8.38% and an inhibition at 1.56 µM [6] of 33.6 ± 5.25%. For the same compound, the inhibition at 3.13 µM [6] was 38 ± 3.24%, the inhibition at 6.25 µM [6] was 40.7 ± 10.9% and the inhibition at 12.5 µM [6] was 49 ± 11.7%. It also gave an inhibition at 25 µM [6] of 60.7 ± 3.73%, an inhibition at 50 µM [6] of 64.8 ± 2.96% and an inhibition at 100 µM [6] of 78 ± 2.16%. The inhibition at 200 µM [6] was 95.3 ± 3.6%, the IC50 [6] was 12.8 ± 7.01 µM and the Kd [7] was 257 µM. The “inhibitory effects to the hemagglutination reaction induced by the virus HA1” value [8] was “had not produced inhibitory effects”.

In the case of `CC1CCC2(OC1)OC1CC3C4CC(O)C5CC(OC6OC(CO)C(OC7OC(C)C(O)C(O)C7O)C(O)C6OC6OC(C)C(O)C(O)C6O)CCC5(C)C4CCC3(C)C1C2C` (stereo not drawn) [XC-27-2], the “inhibitory effects on the VSVG pseudovirus” value [4] is reported as “no inhibitory effects”, the inhibition at 1.56 µM [4] is reported as 2.62 ± 4.57% and the inhibition at 3.13 µM [4] is reported as -3.39 ± 4.64%. For the same compound, the inhibition at 6.25 µM [4] was 0.17 ± 5.78%, the inhibition at 12.5 µM [4] was 1.54 ± 13.9% and the inhibition at 25 µM [4] was 0.46 ± 0.94%. The inhibition at 50 µM [4] was 0.34 ± 6.12%, the inhibition at 100 µM [4] was 6.84 ± 5.83% and the inhibition at 200 µM [4] was 6.52 ± 2.16%. The CC50 [9] was 73.8 ± 0.79 µM, the inhibition at 40 µM ([5]; H5N1, read-out: inhibition percentage of H5N1 viral plaques forming amounts) was 91% and the inhibition at 40 µM [5, 12] was 96%. For the same compound, the IC50 ([3]; Influenza A virus, H5N1, MDCK) was 12.5 ± 2.27 µM, the inhibition at 0.39 µM [3, 11] was 31.9 ± 4.33% and the inhibition at 0.78 µM [3, 11] was 38.6 ± 0.68%. For the same compound, the inhibition at 1.56 µM [3, 11] was 41.5 ± 2.01%, the inhibition at 3.13 µM [3, 11] was 47.1 ± 5.94% and the inhibition at 6.25 µM [3, 11] was 55.6 ± 3.97%. For the same compound, the inhibition at 12.5 µM [3, 11] was 62.2 ± 0.99%, the inhibition at 25 µM [3, 11] was 71 ± 4.31% and the inhibition at 50 µM [3, 11] was 96.8 ± 1.51%. The “inhibition activity on NA (in words)” value [1] was “very low inhibition activity”, the inhibition at 6.25 µM [1] was 1.09 ± 2.99% and the inhibition at 12.5 µM [1] was 5.75 ± 4.41%. It also gave an inhibition at 25 µM [1] of 2.89 ± 8.39%, an inhibition at 50 µM [1] of 10.5 ± 16.5% and an inhibition at 100 µM [1] of 13.3 ± 4.06%. The inhibition at 200 µM [1] was 15.6 ± 2.97%, the inhibition at 400 µM [1] was 32 ± 10% and the inhibition at 1.56 µM [6] was 26.8 ± 9.96%. It also gave an inhibition at 3.13 µM [6] of 30.1 ± 12.2%, an inhibition at 6.25 µM [6] of 35.8 ± 12.1% and an inhibition at 12.5 µM [6] of 46.3 ± 6.37%. The inhibition at 25 µM [6] was 47.4 ± 13.2%, the inhibition at 50 µM [6] was 64.9 ± 12.5% and the inhibition at 100 µM [6] was 90.5 ± 2.35%. The inhibition at 200 µM [6] was 95.98 ± 0.68%, the IC50 [6] was 18.5 ± 1.82 µM and the Kd [7] was 367 µM. For the same compound, the “inhibitory effects to the hemagglutination reaction induced by the virus HA1” value [8] was “had not produced inhibitory effects”.

In the case of `CC1CCC2(OC1)OC1CC3C4CC(O)C5CC(OC6OC(CO)C(OC7OC(C)C(O)C(O)C7O)C(O)C6OC6OC(C)C(O)C(O)C6O)CCC5(C)C4CCC3(C)C1C2C` (stereo not drawn) [chlorogenin 3-O-β-chacotrioside], the IC50 [10] is listed as 7.22 to 9.25 µM.

In the case of `CCC(CC)[C@H](NC(C)=O)[C@@H]1[C@H](O)[C@@H](C(=O)O)C[C@H]1N=C(N)N` [peramivir, reference compound], the IC50 ([1]; read-out: IC50 against H5N1 viral NA) is reported as 0.000668 µM.

`NC(=O)c1ncn([C@@H]2O[C@H](CO)[C@@H](O)[C@H]2O)n1` [ribavirin, reference compound] gave a CC50 [9] of 132 ± 0.87 µM and an IC50 ([3]; Influenza A virus, H5N1, MDCK) of 37.2 ± 1.6 µM.

Source: paper PMC7150989 (Viruses, 2020)
